This note sets out measurements from BindingDB's records for doi:10.1016/S0960-894X(01)80746-0 (1993).

This assay can be described thus: Tested for inhibitory activity of compound against Phospholipase A2 (PLA2).

With `CCCCCCCCCCCC(=O)N[C@H](CCCC)COP(=O)([O-])OCC[N+](C)(C)C` [(2-{[2-((S)-Dodecanoylamino)-hexyloxy]-hydroxy-phosphoryloxy}-ethyl)-trimethyl-ammonium], the IC50 – broadly, the concentration at which inhibition is half-maximal – amounted to 5.3 µM.

`CCCCCCCCCCCC(=O)N1C(=O)OC[C@@H]1COP(=O)([O-])OCC[N+](C)(C)C` [{2-[((R)-3-Dodecanoyl-2-oxo-oxazolidin-4-ylmethoxy)-hydroxy-phosphoryloxy]-ethyl}-trimethyl-ammonium] returned an IC50 of 31 µM.
